Values quoted from earlier work in patent publication US20210338702A1, “A teniposide injection with high dilution stability and preparation method thereof” (JIANGSU LINGHANG BIOLOGICAL TECHNOLOGY CO., LTD., priority 2018, published 2021).

How the values were obtained:
[1] = compared with the same type of drug etoposide

For COc1cc([C@@H]2c3cc4c(cc3[C@@H](O[C@@H]3O[C@@H]5CO[C@@H](c6cccs6)O[C@H]5[C@H](O)[C@H]3O)[C@H]3COC(=O)[C@H]23)OCO4)cc(OC)c1O [Teniposide], the “Biological activity relative to etoposide” value [1] is listed as 5-10 times and the Solubility in water is listed as “almost insoluble in water”.
